Columns and labels:
Carrageenanödembildung = experiment: Carrageenan-induced oedema model, oral administration; format: in vivo; settings: Hemmung der Carrageenanödembildung nach oraler Gabe
Description: Die erfindungsgemäßen Verbindungen sind auch in-vivo wirksam. Diese Wirkung wird durch die Messung der Hemmung der Leukozytenmigration nach an sich bekannten Methoden nachgewiesen (vgl. Higgs et al., Biochemical Pharmacology 28, 1959, (1979) und Eur. J. Pharmacol. 66,81 (1981)). Die erfindungsgemäßen Verbindungen reduzieren auch die ödembildung im Carrageenan-Entzündungsmodell, (vgl. Tabelle C) und hemmen die Metastasierung von B-16 Melanom (nach Honn, et.al. Science 212, 1981).

Hyperalgesie = experiment: Randall-Selitto hyperalgesia test, oral administration; format: in vivo; settings: Hemmung der Hyperalgesie nach Randall-Selitto nach oraler Gabe
Description: Die erfindungsgemäßen Verbindungen sind auch in vivo wirksam im Hyperalgesie-Test nach Randall-Selitto, vgl. Tabelle B (Randall, L.O., Selitto, J., Arch. Int. Pharmakodyn, 111, 209-219, 1957).

[1] = system: Lipoxygenase in PMN-Leukozyten; experiment: Inhibition of lipoxygenase in PMN leukocytes (release of 5-HETE); format: cell-based; settings: species (human or rabbit) not given
Description: Der Nachweis der lipoxygenasehemmenden Eigenschaften der neuen, erfindungsgemäßen Verbindungen erfolgt analog der Methode von Bailey et al., J. Biol. Chem. 255, 5996, 1980 und nach Blackwell and Flower, Prostaglandins 16, 417, 1978. Bei dieser Testmethode wird der Metabolismus radioaktiv markierter Arachidonsäure an gewaschenen Humanthrombozyten untersucht. Bei diesem in-vitro-Test werden die radioaktiv markierten Metaboliten aus dem Reaktionsansatz extrahiert und dünnschichtchromatographisch getrennt. Das Autoradiogramm wird mit Dünnschichtscanner ausgewertet. Bei diesen Testbedingungen werden die markierten Metaboliten von der nicht umgesetzten Arachidonsäure getrennt und sind anschließend auszuwerten. Die Verteilung der Radioaktivität auf die während der Metabolisierung gebildeten Cyclooxygenaseprodukte Thromboxan B2 (TXB2) und 12-Hydroxy-5.8.10-heptadekatriensäure (HHT) bzw. das Lipoxygenaseprodukt 12-Hydroxy-5.8.11.14-eikosa- tetraensäure (HETE) unter dem Einfluß der Inhibitoren stellt ein Maß für die Hemmung der Enzyme dar.
Analog dem o.a. Test lassen sich die lipoxygenasehemmenden Eigenschaften der neuen, erfindungsgemäßen Verbindungen auch an Leukozyten nachweisen. Die polymorphkernigen Leukozyten des Menschen und des Kaninchens metabolisieren die Arachidonsäure zu 5-Hydroxy-5.8.11.14-eikosatetraensäure (5-HETE) und Leukotrien B4 (5S, 12R-Dihydroxy-6 cis, 8.10 trans, 14 ciseikosatetraensäure). Die Hemmung der Freisetzung von 5-HETE und Leukotrien B4 aus den Leukozyten stellt ein Maß für den lipoxygenasehemmenden Effekt der neuen, erfindungsgemäßen Verbindungen dar (vgl. Tabelle A).
Der Test mit den Humanleukozyten wird nach Borgeat and Samuelsson (J.Biol. Chem. 254, 2643, 1979 und Proc. Natl. Acad. Sci. U.S.A. 76, 2148, 1979), mit Kaninchenleukozyten nach Walker and Parish (Intern. Archs. Allergy Appl. Immun. 66, 83, 1981) durchgeführt.

Row | Compound | DE50[mg/kg], oral (Carrageenanödembildung) | DE50[mg/kg], oral (Hyperalgesie) | Minimale Konzentration (mol/l) für die Hemmung der Lipoxygenase in PMN-Leukozyten (5-HETE) [1]
1 | CN1C=COc2cn[nH]c21 [Beispiel 1, 7-Methylpyrazolo[4.3-b][1.4]oxazin] | 13,3 mg/kg | 19,7 mg/kg | > 10^-5 mol/l
2 | 2-Methyl-5-phenylpyrazolo[4.3-b][1.4]oxazin [Beispiel 2] | 10,3 mg/kg | 0,80 mg/kg | 5 . 10^-6 mol/l
3 | CN1c2[nH]ncc2OC(c2ccccc2)C1c1ccccc1 (centres unmarked) [compound 10] |  |  | 5.10^-6 mol/l
4 | CN1CC(c2ccccc2)Oc2cn(C)nc21 (centres unmarked) [compound 9] |  |  | 10^-5 mol/l
5 | CN1CCOc2cn(Cc3ccc(Cl)c(Cl)c3)nc21 [compound 8] |  |  | 10^-5 mol/l
6 | CN1c2[nH]ncc2O[C@@H](c2ccccc2)[C@H]1c1ccccc1 (relative stereo) [Beispiel 3, cis-7-Methyl-5,6-diphenylpyrazolo[4.3-b][1.4]oxazin] | 12,7 mg/kg | 1,23 mg/kg | 5 . 10^-6 mol/l
7 | CCCc1n[nH]c2c1OC(c1ccccc1)=C(c1ccccc1)N2C [Beispiel 5, 7-Methyl-3-propyl-5,6-diphenylpyrazolo[4.3-b][1.4]oxazin] | 14,2 mg/kg |  | > 10^-5 mol/l
8 | CC(=O)n1nc(C)c2c1N(C)C(c1ccccc1)=C(c1ccccc1)O2 [Beispiel 6, 1-Acetyl-3,7-dimethyl-5.6-diphenylpyrazolo[4.3-b][1.4]-oxazin] | 2,5 mg/kg |  | 5 . 10^-6 mol/l
9 | CC(C)c1n[nH]c2c1OC(c1ccccc1)C(c1ccccc1)N2C (centres unmarked) [compound 7] |  |  | 5 . 10^-6 mol/l
10 | Cc1n[nH]c2c1OC(c1ccccc1)=C(c1ccccc1)N2C [Beispiel 4, 3,7-Dimethyl-5,6-diphenylpyrazolo[4.3-b][1.4]oxazin] | 11,3 mg/kg | 7,7 mg/kg | 10^-5 mol/l
